The target in the assay is T1, Trifunctional purine biosynthetic protein adenosine-3 (Homo sapiens, UniProt P22102).
T1 sequence (P22102 whole entry): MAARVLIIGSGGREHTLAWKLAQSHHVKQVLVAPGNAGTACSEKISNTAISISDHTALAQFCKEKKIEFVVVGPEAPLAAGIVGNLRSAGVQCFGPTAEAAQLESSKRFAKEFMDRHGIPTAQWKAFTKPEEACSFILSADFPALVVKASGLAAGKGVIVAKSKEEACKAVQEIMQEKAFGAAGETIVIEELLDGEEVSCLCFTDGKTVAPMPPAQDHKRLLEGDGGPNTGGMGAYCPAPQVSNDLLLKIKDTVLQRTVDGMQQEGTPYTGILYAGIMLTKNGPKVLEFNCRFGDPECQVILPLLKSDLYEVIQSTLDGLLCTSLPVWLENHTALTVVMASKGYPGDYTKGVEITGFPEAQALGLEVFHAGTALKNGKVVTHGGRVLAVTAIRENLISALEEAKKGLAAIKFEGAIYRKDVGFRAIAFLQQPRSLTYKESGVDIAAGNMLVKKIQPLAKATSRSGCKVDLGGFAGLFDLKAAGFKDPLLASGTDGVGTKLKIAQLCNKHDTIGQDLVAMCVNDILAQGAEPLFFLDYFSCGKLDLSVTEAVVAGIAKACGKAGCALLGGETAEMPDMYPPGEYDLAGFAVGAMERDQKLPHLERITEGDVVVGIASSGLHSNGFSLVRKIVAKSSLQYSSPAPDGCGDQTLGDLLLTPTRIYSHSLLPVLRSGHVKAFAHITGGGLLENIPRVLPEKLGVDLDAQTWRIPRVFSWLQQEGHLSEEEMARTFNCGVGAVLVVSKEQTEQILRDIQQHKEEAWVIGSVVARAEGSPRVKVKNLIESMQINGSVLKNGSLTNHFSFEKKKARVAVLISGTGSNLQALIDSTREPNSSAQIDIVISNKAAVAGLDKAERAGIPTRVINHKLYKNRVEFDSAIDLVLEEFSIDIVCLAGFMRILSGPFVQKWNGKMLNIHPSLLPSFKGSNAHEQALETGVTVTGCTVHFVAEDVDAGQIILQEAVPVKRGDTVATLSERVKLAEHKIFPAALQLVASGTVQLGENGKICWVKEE
Description: GAR Transformylase Inhibition Assay. Particulars: pH 7.5. Here is the method: To initiate the assay, 150 μL of 20 nM His-GARFTase or buffer was added, and the plate was shaken for 5 s. […] For each antifolate, triplicate assays were performed at 20 different drug concentrations.

As for `Nc1nc2[nH]c(CCCCCCCC(=O)N[C@@H](CCC(=O)O)C(=O)O)cc2c(=O)[nH]1`, the inhibition constant (Ki) (as a rule, the dissociation constant of the complex between target and ligand, obtained from inhibition or displacement) is 0.099 µM.

`Nc1nc2[nH]c(CCCCc3ccc(C(=O)N[C@@H](CCC(=O)O)C(=O)O)s3)cc2c(=O)[nH]1` [(S)-2-({5-[4-(2-Amino-4-oxo-4,7-dihydro-3H-pyrrolo[2,3-d]-pyrimidin-6-yl)-butyl]-thiophene-2-carbonyl}-amino)-pentanedioicAcid] yielded a Ki of 0.022 µM. This Ki lies about 4.5-fold lower than the previous one.

Compound `Nc1nc2[nH]c(CCCCc3ccc(C(=O)N[C@@H](CCC(=O)O)C(O)O)cc3)cc2c(=O)[nH]1` [AGF23] had an inhibition constant Ki of 0.017 µM. This Ki and that of the compound before are within 1.5-fold of each other.

`Nc1nc2sc(CCCCc3ccc(C(=O)N[C@@H](CCC(=O)O)C(O)O)cc3)cc2c(=O)[nH]1` [AGF50] yielded an inhibitory constant (Ki) of 1.07 µM. This Ki is about 63-fold higher than that of the compound before.

In turn, `Nc1nc2[nH]c(CCCCCCC(=O)N[C@H](CCC(=O)O)C(=O)O)cc2c(=O)[nH]1` [AGF145] had an inhibition constant Ki of 0.067 µM.
